{
  "source": "patent EP0240392A1",
  "about": "“Compounds of the cyclophosphazene type, process for their preparation and pharmaceutical preparation containing them” (CENTRE NATIONAL DE LA RECHERCHE SCIENTIFIQUE (CNRS), priority 1986, dated 1987)",
  "key": {"[1]": {"system": "RETICULO SARCOME M5076 MURIN", "experiment": "Antitumour activity on murine M5076 reticulum sarcoma implanted i.m. in mice", "assay_type": "in vivo, souris C57Bl/6", "conditions": "for Poids corporel (g±S.E.) / Poids de la rate (mg±S.E.) / Poids de la tumeur (g±S.E.) / Poids du foie (g±S.E.): jour 23; for nombre de souris vivantes/total: Tableau 5", "text": "Les tests d'activité antitumorale ont été conduits au sein du Screening and Pharmacology Group de l'E.O.R.T.C., implanté à l'Institut Mario Negri de Milan.\nCes essais ont été conduits soit en mono-injection à différentes doses au jour J+1 suivant la greffe de la tumeur, soit en poly-injections chroniques Q1D, soit en protocoles Q4D."}, "ERYTH[…] K562": {"system": "ERYTH[…] K562", "experiment": "Growth of human erythroleukemia K562 in vitro", "assay_type": "cell-based, humaine"}, "[2]": {"conditions": "150 mg/kg i.p. x j 1-9, jour 21"}, "[3]": {"conditions": "200 mg/kg i.p. x j 1,5,9, jour 14"}, "[4]": {"conditions": "200 mg/kg i.p. x j 1,5,9, jour 21"}, "[5]": {"conditions": "250 mg/kg i.p. x j 1,5,9, jour 14"}, "[6]": {"conditions": "250 mg/kg i.p. x j 1,5,9, jour 21"}, "[7]": {"conditions": "300 mg/kg i.p. x j 1,5,9, jour 21"}},
  "data": [
    {"smiles": "C(CCN1CCCNP12=NP(N1CC1)(N1CC1)=NP(N1CC1)(N1CC1)=N2)CN1CCCNP12=NP(N1CC1)(N1CC1)=NP(N1CC1)(N1CC1)=N2", "note": "(stereo not drawn) [SPM]", "values": [
      {"measurement": "Volume moyen de la tumeur (cm^3 ± S.E.)", "setting": "[1]; [2]", "value": "0,72±0 cm^3"},
      {"measurement": "nombre de souris avec tumeur/total", "setting": "[1]; [2]", "value": "1/10"},
      {"measurement": "Poids corporel (g±S.E.)", "setting": "[1]; 150 mg/kg i.p. x j 1-9", "value": "17,55±0,70 g"},
      {"measurement": "Poids de la rate (mg±S.E.)", "setting": "[1]; 150 mg/kg i.p. x j 1-9", "value": "103,0±6,02 mg"},
      {"measurement": "Poids de la tumeur (g±S.E.)", "setting": "[1]; 150 mg/kg i.p. x j 1-9", "value": "1,0795±0,11 g"},
      {"measurement": "Poids du foie (g±S.E.)", "setting": "[1]; 150 mg/kg i.p. x j 1-9", "value": "1,0190±0,03 g"},
      {"measurement": "Volume moyen de la tumeur (cm^3 ± S.E.)", "setting": "[1]; [3]", "value": "0,36±0,04 cm^3"},
      {"measurement": "nombre de souris avec tumeur/total", "setting": "[1]; [3]", "value": "2/10"},
      {"measurement": "Volume moyen de la tumeur (cm^3 ± S.E.)", "setting": "[1]; [4]", "value": "2,02±0,26 cm^3"},
      {"measurement": "nombre de souris avec tumeur/total", "setting": "[1]; [4]", "value": "10/10"},
      {"measurement": "Poids corporel (g±S.E.)", "setting": "[1]; 200 mg/kg i.p. x j 1,5,9", "value": "21,05±0,39 g"},
      {"measurement": "Poids de la rate (mg±S.E.)", "setting": "[1]; 200 mg/kg i.p. x j 1,5,9", "value": "208,6± 8,8 mg"},
      {"measurement": "Poids de la tumeur (g±S.E.)", "setting": "[1]; 200 mg/kg i.p. x j 1,5,9", "value": "3,2003±0,18 g"},
      {"measurement": "Poids du foie (g±S.E.)", "setting": "[1]; 200 mg/kg i.p. x j 1,5,9", "value": "1,4620±0,08 g"},
      {"measurement": "nombre de souris avec tumeur/total", "setting": "[1]; 200 mg/kg i.p. x j 1-9, jour 14", "value": "- (0/10)"},
      {"measurement": "nombre de souris avec tumeur/total", "setting": "[1]; 200 mg/kg i.p. x j 1-9, jour 21", "value": "- (0/10)"},
      {"measurement": "Poids corporel (g±S.E.)", "setting": "[1]; 200 mg/kg i.p. x j 1-9", "value": "17,20±0,48 g"},
      {"measurement": "Poids de la rate (mg±S.E.)", "setting": "[1]; 200 mg/kg i.p. x j 1-9", "value": "117,8±9,9 mg"},
      {"measurement": "Poids de la tumeur (g±S.E.)", "setting": "[1]; 200 mg/kg i.p. x j 1-9", "value": "0,3819±0,13 g"},
      {"measurement": "Poids du foie (g±S.E.)", "setting": "[1]; 200 mg/kg i.p. x j 1-9", "value": "1,1088±0,01 g"},
      {"measurement": "Volume moyen de la tumeur (cm^3 ± S.E.)", "setting": "[1]; [5]", "value": "0,32 cm^3"},
      {"measurement": "nombre de souris avec tumeur/total", "setting": "[1]; [5]", "value": "1/9"},
      {"measurement": "Volume moyen de la tumeur (cm^3 ± S.E.)", "setting": "[1]; [6]", "value": "1,02±0,08 cm^3"},
      {"measurement": "nombre de souris avec tumeur/total", "setting": "[1]; [6]", "value": "8/9"},
      {"measurement": "Poids corporel (g±S.E.)", "setting": "[1]; 250 mg/kg i.p. x j 1,5,9", "value": "20,16±0,47 g"},
      {"measurement": "Poids de la rate (mg±S.E.)", "setting": "[1]; 250 mg/kg i.p. x j 1,5,9", "value": "144,5± 7,3 mg"},
      {"measurement": "Poids de la tumeur (g±S.E.)", "setting": "[1]; 250 mg/kg i.p. x j 1,5,9", "value": "2,4530±0,18 g"},
      {"measurement": "Poids du foie (g±S.E.)", "setting": "[1]; 250 mg/kg i.p. x j 1,5,9", "value": "1,2015±0,04 g"},
      {"measurement": "nombre de souris avec tumeur/total", "setting": "[1]; 300 mg/kg i.p. x j 1,5,9, jour 14", "value": "- (0/10)"},
      {"measurement": "Volume moyen de la tumeur (cm^3 ± S.E.)", "setting": "[1]; [7]", "value": "0,94±0,09 cm^3"},
      {"measurement": "nombre de souris avec tumeur/total", "setting": "[1]; [7]", "value": "9/10"},
      {"measurement": "Poids corporel (g±S.E.)", "setting": "[1]; 300 mg/kg i.p. x j 1,5,9", "value": "20,20±0,53 g"},
      {"measurement": "Poids de la rate (mg±S.E.)", "setting": "[1]; 300 mg/kg i.p. x j 1,5,9", "value": "125,6±10,8 mg"},
      {"measurement": "Poids de la tumeur (g±S.E.)", "setting": "[1]; 300 mg/kg i.p. x j 1,5,9", "value": "2,2664±0,19 g"},
      {"measurement": "Poids du foie (g±S.E.)", "setting": "[1]; 300 mg/kg i.p. x j 1,5,9", "value": "1,2654±0,06 g"},
      {"measurement": "nombre de souris vivantes/total", "setting": "[1]; 250 mg/kg i.p. x j 1,5,9", "value": "250 \" ( 9/9 )"},
      {"measurement": "nombre de souris vivantes/total", "setting": "[1]; 300 mg/kg i.p. x j 1,5,9", "value": "300xj 1,5,9 (10/10)"},
      {"measurement": "Nombre de cellules x 10^4", "setting": "ERYTH[…] K562; 0,01 µg/ml, 24 heures", "value": "20,7 ± 1,7 x 10^4"},
      {"measurement": "Nombre de cellules x 10^4", "setting": "ERYTH[…] K562; 0,1 µg/ml, 24 heures", "value": "17,8 ± 1,7 x 10^4"},
      {"measurement": "Nombre de cellules x 10^4", "setting": "ERYTH[…] K562; 0,01 µg/ml, 48 heures", "value": "41,5 ± 1,6 x 10^4"},
      {"measurement": "Nombre de cellules x 10^4", "setting": "ERYTH[…] K562; 0,1 µg/ml, 48 heures", "value": "37,2 ± 4,5 x 10^4"},
      {"measurement": "Nombre de cellules x 10^4", "setting": "ERYTH[…] K562; 0,01 µg/ml, 72 heures", "value": "60,7 ± 5,8 x 10^4"},
      {"measurement": "Nombre de cellules x 10^4", "setting": "ERYTH[…] K562; 0,1 µg/ml, 72 heures", "value": "60,6 ± 5,4 x 10^4"},
      {"measurement": "Nombre de cellules x 10^4", "setting": "ERYTH[…] K562; 1 µg/ml, 24 heures", "value": "17,8 ± 3,3 x 10^4"},
      {"measurement": "Nombre de cellules x 10^4", "setting": "ERYTH[…] K562; 1 µg/ml, 48 heures", "value": "36,4 ± 1,8 x 10^4"},
      {"measurement": "Nombre de cellules x 10^4", "setting": "ERYTH[…] K562; 1 µg/ml, 72 heures", "value": "50,9 ± 4,3 x 10^4"},
      {"measurement": "Nombre de cellules x 10^4", "setting": "ERYTH[…] K562; 5 µg/ml, 24 heures", "value": "17,3 ± 1,4 x 10^4"},
      {"measurement": "Nombre de cellules x 10^4", "setting": "ERYTH[…] K562; 5 µg/ml, 48 heures", "value": "20,9 ± 2,1 x 10^4"},
      {"measurement": "Nombre de cellules x 10^4", "setting": "ERYTH[…] K562; 5 µg/ml, 72 heures", "value": "35,5 ± 2,0 x 10^4"},
      {"measurement": "Nombre de cellules x 10^4", "setting": "ERYTH[…] K562; 10 µg/ml, 24 heures", "value": "17,4 ± 0,9 x 10^4"},
      {"measurement": "Nombre de cellules x 10^4", "setting": "ERYTH[…] K562; 10 µg/ml, 48 heures", "value": "21,1 ± 0,2 x 10^4"},
      {"measurement": "Nombre de cellules x 10^4", "setting": "ERYTH[…] K562; 10 µg/ml, 72 heures", "value": "26,9 ± 2,3 x 10^4"},
      {"measurement": "Nombre de cellules x 10^4", "setting": "ERYTH[…] K562; 50 µg/ml, 24 heures", "value": "13,2 ± 1,7 x 10^4"},
      {"measurement": "Nombre de cellules x 10^4", "setting": "ERYTH[…] K562; 50 µg/ml, 48 heures", "value": "15,0 ± 1,5 x 10^4"},
      {"measurement": "Nombre de cellules x 10^4", "setting": "ERYTH[…] K562; 50 µg/ml, 72 heures", "value": "17,4 ± 1,3 x 10^4"},
      {"measurement": "Nombre de cellules x 10^4", "setting": "ERYTH[…] K562; 100 µg/ml, 24 heures", "value": "11,6 ± 0,4 x 10^4"},
      {"measurement": "Nombre de cellules x 10^4", "setting": "ERYTH[…] K562; 100 µg/ml, 48 heures", "value": "14,7 ± 0,1 x 10^4"},
      {"measurement": "Nombre de cellules x 10^4", "setting": "ERYTH[…] K562; 100 µg/ml, 72 heures", "value": "15,0 ± 0,8 x 10^4"},
      {"measurement": "effet sur la croissance in vitro de l'érythroleucémie humaine K562 (result in words)", "setting": "ERYTH[…] K562; in vitro, MYCLAz: même à dose toxique", "value": "inhibe d'une manière très remarquable la croissance in vitro"},
      {"measurement": "amplitude de la plage de doses à effet significatif", "setting": "ERYTH[…] K562; ratio of highest to lowest significant dose", "value": "≥ 10 000"}
    ]}
  ]
}
